Assay results: patent publication US10076505B2, “Inhalation formulations of Treprostinil” (priority 2003, dated 2018)

Columns and labels:
rat = settings: orally, 1 mg/kg, cited from earlier work
sheep [1] = test: Intravenous and aerosolized UT-15 dose response during U44069 induced pulmonary hypertension (Example V); assay type: in vivo; settings: U44069 infused intravenously at 1 ng per kg per min
Text: Sheep were used as the animal model of choice for these experiments for a number of reasons. First is the docile nature of sheep. They will stand quietly in metabolic cages without having to utilize tranquilizing drugs, which have the potential to complicate experimental results. Second, sheep are large enough to allow direct measurement of CO, PPA, PLA, PCV, and PSYS. Sheep are also large enough to allow direct aerosolization of substances into the lung via trachoestomy thereby preventing swallowing of drugs and thus eliminating a possible secondary route of administration of UT-15. Third, sheep can tolerate a great amount of instrumentation with little or no discomfort. Fourth, sheep have been utilized for several years as an animal model of pulmonary arterial hypertension and thus, there is a great amount of historical data with which to compare the results. […] The reasons for using U44069 are that it is a very potent pulmonary vasoconstrictor, its characteristics are very similar to endogenously formed thromboxane A2, and it can be titrated to induce the desired degree of pulmonary vasoconstriction. U44069 was mixed with sterile normal saline immediately prior to being used and was protected from light by wrapping the solution with aluminum foil. The concentration of U44069 was adjusted such that a minimal flow rate of 0.8 ml per min was being infused into the sheep. This was done because more concentrated U44069 would have to be infused at very low rates and often causes “pulses” of U44069 due to the infusion characteristics of roller pumps. The U44069 pulses cause vasoconstriction “spikes” and thus would create induce a non-steady-state. Six yearling sheep (3 males, 3 females; 21-37 kg) were fasted 18-24 hours and initially anesthetized with a short acting barbiturate (thiopental) to allow intubation of the sheep. Halothane gas anesthesia (1.5-2.5%) was then used for the surgical procedures. Via a left thoracotomy, a Transonic blood flow probe was placed around the main pulmonary artery, silastic catheters placed in the main pulmonary artery and left atrium. After approximately 7 days the sheep were reanesthetized and the left carotid artery cannulated, a Cordis Introducer Sheath inserted in the left jugular vein, and a tracheotomy made. The sheep were allowed to recover for another 3-5 days prior to experimentation. These sheep were used to allow measurement of pulmonary arterial pressure (PPA), left atrial pressure (PLA), central venous pressure (PCV), systemic arterial pressure (PSYS), heart rate (HR), and cardiac output (CO) after baseline measurements were made for a minimum of 30 minutes. Two separate experiments were conducted to determine the dose response effects of intravenously infused UT-15 and aerosolized UT-15 during U44069 induced pulmonary hypertension. After a 30 minute baseline was established, U44069 was infused intravenously at a rate of 1 ng per kg per min. For the intravenous administration of UT-15 and after allowing the sheep to achieve a steady-state for 30-60 minutes, a dose-response to intravenous UT-15 was similar to that set forth in Example IV. For the aerosolized administration of UT-15 and after allowing the sheep to achieve a steady-state for 30-60 minutes, a dose-response to intravenous UT-15 was similar to that set forth in Example IV. In each experimental protocol, UT-15 was administered to three sheep for 30 minutes and to the other three sheep for 60 minutes.

sheep [2] = test: Prolonged U44069 intravenous infusion, pulmonary vascular resistance and hemodynamics (Example II); assay type: in vivo
Text: Sheep were used as the animal model of choice for these experiments for a number of reasons. First is the docile nature of sheep. They will stand quietly in metabolic cages without having to utilize tranquilizing drugs, which have the potential to complicate experimental results. Second, sheep are large enough to allow direct measurement of CO, PPA, PLA, PCV, and PSYS. Sheep are also large enough to allow direct aerosolization of substances into the lung via trachoestomy thereby preventing swallowing of drugs and thus eliminating a possible secondary route of administration of UT-15. Third, sheep can tolerate a great amount of instrumentation with little or no discomfort. Fourth, sheep have been utilized for several years as an animal model of pulmonary arterial hypertension and thus, there is a great amount of historical data with which to compare the results. The agent chosen to induce pulmonary arterial hypertension was a PGH2 analog, U44069 (9,11-dideoxy,9α,11α-epoxymethanoprostaglandin F2α). The reasons for using U44069 are that it is a very potent pulmonary vasoconstrictor, its characteristics are very similar to endogenously formed thromboxane A2, and it can be titrated to induce the desired degree of pulmonary vasoconstriction. U44069 was mixed with sterile normal saline immediately prior to being used and was protected from light by wrapping the solution with aluminum foil. The concentration of U44069 was adjusted such that a minimal flow rate of 0.8 ml per min was being infused into the sheep. This was done because more concentrated U44069 would have to be infused at very low rates and often causes “pulses” of U44069 due to the infusion characteristics of roller pumps. The U44069 pulses cause vasoconstriction “spikes” and thus would create induce a non-steady-state.
Six yearling sheep (3 males, 3 females; 21-37 kg) were fasted 18-24 hours and initially anesthetized with a short acting barbiturate (thiopental) to allow intubation of the sheep. Halothane gas anesthesia (1.5-2.5%) was then used for the surgical procedures. Via a left thoracotomy, a Transonic blood flow probe was placed around the main pulmonary artery, silastic catheters placed in the main pulmonary artery and left atrium. After approximately 7 days the sheep were reanesthetized and the left carotid artery cannulated, a Cordis Introducer Sheath inserted in the left jugular vein, and a tracheotomy made. The sheep were allowed to recover for another 3-5 days prior to experimentation. These sheep were used to allow measurement of pulmonary arterial pressure (PPA), left atrial pressure (PLA), central venous pressure (PCV), systemic arterial pressure (PSYS), heart rate (HR), and cardiac output (CO) after baseline measurements were made for a minimum of 30 minutes.
In four sheep, the ability of U44069 to maintain a steady-state increase in PVR was determined. After a 30 minute baseline, U44069 was infused at a rate of 1 microgram per kg of body weight per minute for 180 minutes. […] In particular, FIG. 9 illustrates that intravenously infused U44069 causes PVR to reach a steady-state increase by 30 minutes and that the steady-state increase lasts for a minimum of 180 minutes. U44069 caused significant alterations in other variables (data not shown) over the 180 minute infusion period relative to their baseline values: PPA increased, HR decreased, CO decreased.

[3] = in vivo; cited from earlier work
[4] = U44069 iv 1 microgram per kg per minute for 180 minutes, four sheep
[5] = U44069 iv 1 microgram per kg per minute, 180 minute infusion

In the case of `CCCCC[C@H](O)CC[C@@H]1[C@H]2Cc3cccc(OCC(=O)OC)c3C[C@H]2C[C@H]1O` [9-deoxy-2′,9α-methano-3-oxa-4,5,6-trinor-3,7-(1′,3′-interphenylene)-PGF1, methyl ester], the “blood pressure still lower after 52 min” value (rat; after 52 min) is given as 14 mm and the lowered blood pressure (rat) is given as 44 mmHg.

For `CCCCC[C@H](O)/C=C/C1C2COC(C2)C1C/C=C\CCCC(=O)O` (stereo partly drawn) [U44069, 9,11-dideoxy,9α,11α-epoxymethanoprostaglandin F2α], the “PPA relative to baseline” value (sheep [1]) was “significantly increased”, the PVR (sheep [1]) was “dramatic increase” and the “cardiac output relative to baseline” value (sheep [1]) was “decrease”. The left atrial pressure (sheep [1]) was “did not alter”, the “duration of steady-state increase in PVR” value (sheep [2]; [4]) was ≥ 180 min and the “time for PVR to reach a steady-state increase” value (sheep [2]; [4]) was ≤ 30 min. The “cardiac output (CO) relative to baseline” value (sheep [2]; [5]) was “decreased”, the “heart rate (HR) relative to baseline” value (sheep [2]; [5]) was “decreased” and the “pulmonary arterial pressure (PPA) relative to baseline” value (sheep [2]; [5]) was “increased”. The “left atrial pressure (PLA) relative to baseline” value (sheep [2]; U44069 iv infusion, any time point) was “did not significantly change”, the “central venous pressure (PCV) relative to baseline” value (sheep [2]; U44069 iv infusion, significant only at 30 and 60 minutes) was “increased” and the “systemic arterial pressure (PSYS) relative to baseline” value (sheep [2]; U44069 iv infusion, statistically different only at 120, 150 and 180 minutes) was “increased above baseline values”.

In the case of `CCCCC[C@H](O)CC[C@@H]1[C@H]2Cc3cccc(OCC(=O)[O-])c3C[C@H]2C[C@H]1O.[Na+]` [Treprostinil sodium], the plasma half life [3] is given as “more than 4 hours”.
